Measurements from patent publication US20030186434A1, “Method of forming vertebrate pancreas in vitro” (priority 2002, published 2003).

System: blastopore upper lip of early gastrula of a Xenopus
Experiment: Tissue differentiation of blastopore upper lip cultured continuously in retinoic acid solution for 10 days
Type: cell-based
Settings: for Atypical epidermis differentiated, specimens (%) / Cartilage differentiated, specimens (%) / Cement gland differentiated, specimens (%) / Coelomic epithelium differentiated, specimens (%) / Ear vesicle differentiated, specimens (%) / Epidermis differentiated, specimens (%) / Eye or its fragments differentiated, specimens (%) / Gastric gland differentiated, specimens (%) / Hemocyte differentiated, specimens (%) / Intestinal epithelium differentiated, specimens (%) / Mesenchyme differentiated, specimens (%) / Muscle differentiated, specimens (%) / Neural tissue differentiated, specimens (%) / Notochord differentiated, specimens (%) / Pancreas differentiated, specimens (%) / Pharyngeal epithelium differentiated, specimens (%) / Pronephros differentiated, specimens (%) / Yolk-rich cell differentiated, specimens (%): continuous 10 days

## CC1=C(/C=C/C(C)=C/C=C/C(C)=C/C(=O)O)C(C)(C)CCC1 [Retinoic acid, retinoic acid]
10^−4 M, continuous treatment
  survival of explants while being cultured: all the explants died
10^−5 M, 17 specimens
  Atypical epidermis differentiated, specimens (%): 0 (0)
  Cartilage differentiated, specimens (%): 0 (0)
  Cement gland differentiated, specimens (%): 0 (0)
  Coelomic epithelium differentiated, specimens (%): 2 (12)
  Ear vesicle differentiated, specimens (%): 0 (0)
  Epidermis differentiated, specimens (%): 7 (41)
  Eye or its fragments differentiated, specimens (%): 0 (0)
  Gastric gland differentiated, specimens (%): 0 (0)
  Hemocyte differentiated, specimens (%): 0 (0)
  Intestinal epithelium differentiated, specimens (%): 8 (47)
  Mesenchyme differentiated, specimens (%): 8 (47)
  Muscle differentiated, specimens (%): 0 (0)
  Neural tissue differentiated, specimens (%): 0 (0)
  Notochord differentiated, specimens (%): 14 (82)
  Pancreas differentiated, specimens (%): 2 (12)
  Pharyngeal epithelium differentiated, specimens (%): 5 (29)
  Pronephros differentiated, specimens (%): 0 (0)
  Yolk-rich cell differentiated, specimens (%): 15 (88)
10^−6 M, 16 specimens
  Atypical epidermis differentiated, specimens (%): 0 (0)
  Cartilage differentiated, specimens (%): 0 (0)
  Cement gland differentiated, specimens (%): 0 (0)
  Coelomic epithelium differentiated, specimens (%): 2 (13)
  Ear vesicle differentiated, specimens (%): 0 (0)
  Epidermis differentiated, specimens (%): 1 (6)
  Eye or its fragments differentiated, specimens (%): 0 (0)
  Gastric gland differentiated, specimens (%): 2 (13)
  Hemocyte differentiated, specimens (%): 0 (0)
  Intestinal epithelium differentiated, specimens (%): 14 (88)
  Mesenchyme differentiated, specimens (%): 13 (81)
  Muscle differentiated, specimens (%): 3 (19)
  Neural tissue differentiated, specimens (%): 0 (0)
  Notochord differentiated, specimens (%): 14 (88)
  Pancreas differentiated, specimens (%): 1 (6)
  Pharyngeal epithelium differentiated, specimens (%): 3 (19)
  Pronephros differentiated, specimens (%): 0 (0)
  Yolk-rich cell differentiated, specimens (%): 14 (88)
10^−7 M, 15 specimens
  Atypical epidermis differentiated, specimens (%): 0 (0)
  Cartilage differentiated, specimens (%): 0 (0)
  Cement gland differentiated, specimens (%): 0 (0)
  Coelomic epithelium differentiated, specimens (%): 9 (60)
  Ear vesicle differentiated, specimens (%): 0 (0)
  Epidermis differentiated, specimens (%): 8 (53)
  Eye or its fragments differentiated, specimens (%): 0 (0)
  Gastric gland differentiated, specimens (%): 3 (20)
  Hemocyte differentiated, specimens (%): 0 (0)
  Intestinal epithelium differentiated, specimens (%): 5 (33)
  Mesenchyme differentiated, specimens (%): 9 (60)
  Muscle differentiated, specimens (%): 4 (27)
  Neural tissue differentiated, specimens (%): 2 (13)
  Notochord differentiated, specimens (%): 14 (93)
  Pancreas differentiated, specimens (%): 1 (7)
  Pharyngeal epithelium differentiated, specimens (%): 9 (60)
  Pronephros differentiated, specimens (%): 1 (7)
  Yolk-rich cell differentiated, specimens (%): 13 (87)
10^−8 M, 20 specimens
  Atypical epidermis differentiated, specimens (%): 0 (0)
  Cartilage differentiated, specimens (%): 9 (45)
  Cement gland differentiated, specimens (%): 0 (0)
  Coelomic epithelium differentiated, specimens (%): 6 (30)
  Ear vesicle differentiated, specimens (%): 0 (0)
  Epidermis differentiated, specimens (%): 19 (95)
  Eye or its fragments differentiated, specimens (%): 0 (0)
  Gastric gland differentiated, specimens (%): 0 (0)
  Hemocyte differentiated, specimens (%): 0 (0)
  Intestinal epithelium differentiated, specimens (%): 2 (10)
  Mesenchyme differentiated, specimens (%): 19 (95)
  Muscle differentiated, specimens (%): 12 (60)
  Neural tissue differentiated, specimens (%): 7 (35)
  Notochord differentiated, specimens (%): 17 (85)
  Pancreas differentiated, specimens (%): 1 (5)
  Pharyngeal epithelium differentiated, specimens (%): 12 (60)
  Pronephros differentiated, specimens (%): 0 (0)
  Yolk-rich cell differentiated, specimens (%): 9 (45)
10^−9 M, 11 specimens
  Atypical epidermis differentiated, specimens (%): 0 (0)
  Cartilage differentiated, specimens (%): 5 (45)
  Cement gland differentiated, specimens (%): 0 (0)
  Coelomic epithelium differentiated, specimens (%): 5 (45)
  Ear vesicle differentiated, specimens (%): 0 (0)
  Epidermis differentiated, specimens (%): 11 (100)
  Eye or its fragments differentiated, specimens (%): 0 (0)
  Gastric gland differentiated, specimens (%): 0 (0)
  Hemocyte differentiated, specimens (%): 0 (0)
  Intestinal epithelium differentiated, specimens (%): 0 (0)
  Mesenchyme differentiated, specimens (%): 10 (91)
  Muscle differentiated, specimens (%): 9 (82)
  Neural tissue differentiated, specimens (%): 9 (82)
  Notochord differentiated, specimens (%): 11 (100)
  Pancreas differentiated, specimens (%): 0 (0)
  Pharyngeal epithelium differentiated, specimens (%): 7 (64)
  Pronephros differentiated, specimens (%): 0 (0)
  Yolk-rich cell differentiated, specimens (%): 8 (73)
Continuous treatment 10 days, any concentration tested
  formation rate of pancreas: about 10%
